In series [1] the test system is CRE-BAG2 cells expressing β-galactosidase. Description: Cellular retention of coumarin galactopyranoside substrates (Example 17). It counts as cell-based. Particulars: 10 μM, hypotonic shock loading, 37° C., excitation 360±20 nm, emission >400 nm. As to the method: CRE-BAG2 cells are prepared as described in Example 15.
Staining solutions of 4-methylcoumarin β-D-galactopyranoside, 4-chloromethylcoumarin β-D-galactopyranoside and 4-trifluoromethylcoumarin β-D-galactopyranoside, respectively, are prepared that are 10 μM in concentration. Each galactopyranoside substrate is loaded into CRE-BAG2 cells expressing β-galactosidase using brief hypotonic shock for less than five minutes. Cells are then washed free of extracellular substrate and incubated for three hours in fresh culture medium at 37° C. Each cell sample is then illuminated at 360±20 nm, and the fluorescence is observed at >400 nm. Fluorescence intensity data is acquired using a cooled CCD camera and subsequently stored in digital format.

Series [2] has as its system Glutathione Transferase from Equine Liver. Description: Glutathione transferase activity in vitro (Example 14). It counts as biochemical. The note with it: room temperature, with GSH. As to the method: Activity of glutathione transferase in vitro can be assayed essentially by the method of Grants and Matsumura (INSECT PHYSIOL. 18 (6), 615 (1988)). • 1) Reagents: The stock reagents required are: 1) 5-Chloromethylfluorescein (CMF) substrate (Example 1) 10 mg/mL in DMF, diluted 1:10 in reaction buffer to 1 mg/mL; 2). Reaction buffer 100 mM potassium phosphate, 15% glycerol pH 6.8; 3). Glutathione (GSH) 155 mM in 20 mM TRIS, 2 mM DTT, 15% glycerol pH 7.8; 4). Glutathione Transferase from Equine Liver (Sigma #G 6511) 1.0 mg/mL in reaction buffer. • 2) Assay. The reaction mixture consists of 0.7 mL reaction buffer, 0.1 mL GSH, 0.1 mL substrate and 0.1 mL enzyme. The background is measured and subtracted by using 0.1 mL of the reaction buffer instead of the enzyme. Enzymatic activity can be detected at less than 5 minutes at room temperature. Product formation can be detected by separation of the polar product from the less polar substrate by a suitable means such as thin layer chromatography or high performance liquid chromatography. For instance, product accumulation can be detected by thin layer chromatography using A) 15:85 methanol:chloroform or B) 2:5:15 NH4OH:isopropyl alcohol:methanol. […] Alternatively the fluorescence of the product is determined using a fluorometer versus a fluorescein standard with excitation at 492 and emission measured at 515 nm. […]

The subject of series [3] is lacZ positive CRE BAG 2 cells. Description: Staining of living lacZ positive cells with galactosidase substrate (Example 11). It counts as cell-based. As to the method:
(§1) NIH/3T3 cells (lacZ negative) and CRE BAG 2 cells (3T3 cells transformed with a retrovirus containing lacZ gene) are employed for cellular assays. Both cell lines can be obtained from American Type Culture Collection Co., Rockville, Md. The cells are grown in a humidified atmosphere of 5% CO2 in Dulbecco's modified Eagle's medium supplemented with 10% calf serum, 50 μg/mL gentamicin, 300 μg/mL L-glutamine and 10 mM HEPES pH 7.4.
(§2) 4-Chloromethylumbelliferyl β-D-galactoside (Cl-MUG) (Example 3) is dissolved in DMSO to get a 10 mM stock solution. A 10 mM stock solution of 4-methylumbelliferyl β-D-galactoside (MUG) (Molecular Probes) is also made in DMSO as a control. The stock solutions are kept sealed in brown reagent bottles and stored at −20° C.
(§3) 100 μL of stock solution is added to 10 mL of fresh culture medium to prepare a “working medium” containing 100 μM Cl-MUG. This medium is filter-sterilized by passing through an Acrodisc™ filter (0.45 μm pore size). A working medium containing MUG is prepared in the same way.
(§4) Cells grown on coverslips are transferred to the working medium and incubated at 37° C. under normal conditions. Cells are examined at the desired time for their fluorescence under a Zeiss microscope equipped with a Hoechst filter set (EX […]/EM 480 nm). […] After 6 hours continuous incubation, the fluorescence intensity of stained CRE BAG 2 cells reaches its highest level.

The test system of series [4] is NIH/3T3 cells (lacZ negative). Briefly: Staining of living lacZ negative cells with galactosidase substrate (Example 11). Type of series: cell-based. Particulars: 100 μM in working medium, 60 minutes at 37° C., washed with fresh medium. As to the method:
as §1, §2, §3, §4

Series [5] relates to NIH/3T3 cells and CRE BAG 2 cells. Briefly: Cytotoxicity of substrate in working medium (Example 11). It counts as cell-based. As to the method:
as §1, §3
Fluorescence can be detected in the cells for at least 24 hours following washing of the cells with fresh medium.

The subject of another series is lacZ positive cells. Briefly: Dye retention after paraformaldehyde fixation (Example 11). It counts as cell-based. Particulars: 3.7% paraformaldehyde fixation, Hoechst filter set. As to the method:
The cells grown on coverslips and incubated with either Cl-MUG or MUG are immersed in 3.7% paraformaldehyde in 80 mM Pipes buffer, pH 6.5 for 4 minutes to allow the paraformaldehyde to penetrate the cells. The cells are then transferred to 3.7% paraformaldehyde in PBS. After 6 minutes, the cells are washed three times with PBS buffer for ten minutes. The coverslips are put on the slides and sealed.
The fixed cells are examined for their fluorescence under a Zeiss microscope equipped with a Hoechst filter set.

Series [6] relates to lacZ positive CRE BAG 2 cells. Description: Cellular retention after loading by hypoosmotic shock (Example 12). It counts as cell-based. Particulars: after incubation for 4 hours, 2 mM. As to the method: 5-Chloromethylfluorescein di-β-D-galactoside (CMFDG) (Example 1) is dissolved in DMSO to get 20 mM stock solution. A 40 mM stock solution offluorescein di-β-D-galaetoside (FDG) (Molecular Probes) is also made in DMSO as a control. The stock solutions are kept sealed in brown reagent bottles and stored at −20° C.
• (A) FCS-PBS Solution: Phosphate buffered saline (GIBCO), 4% fetal calf serum, 10 mM HEPES, pH 7.2 • (B) Staining Solution: CMFDG: 200 μL of stock solution is diluted with distilled water to 4 mL to get a 1 mM staining solution. FDG: 400 μL of stock solution is diluted to 4 mL with distilled water to get a 4 mM staining solution. 4. Staining and Examination of Cells:
Cells grown on coverslips are transferred to a Petri dish containing 3 mL of FCS-PBS solution and then incubated at 37° C. for 10 minutes. 3 mL of prewarmed (37° C.) 1 mM CMFDG staining solution is added to give a final dye concentration of 0.5 mM The solutions are mixed rapidly. The cells are incubated at 37° C. for exactly one minute. To stop the loading, the cells are transferred to a 1.8 mL of ice-cold FCS-PBS solution. FDG is loaded into cells by using the same procedure except that the final dye concentrations is 2 mM. Cells are then incubated under normal culture conditions to examine the dye retention. Cells are examined without washing at the desired time for their fluorescence under a Zeiss microscope equipped with a FITC filter set (EX 485 nm/EM 530 nm).

For a further series, the system named is NIH/3T3 cells. Briefly: Cellular retention of rhodamine 110 peptidase substrates (Example 16). Type of series: cell-based. Particulars: 25 μM; for leakage of enzyme reaction product after staining: 30 minutes at 37° C.; for fluorescence after washing and several hours in fresh media: fluorescein long-pass filter set. Here is the method: NIH/3T3 cells are prepared as described in Example 15.
Staining solutions of bis-(L-leucine)-rhodamine 110 and L-leucine-rhodamine 110-p-chloromethylbenzamide (Example 9), respectively, are prepared that are 25 μM in concentration. Equivalent NIH/3T3 cells are incubated with the same amount of peptidase substrate for thirty (30) minutes at 37° C. in Modified Tyrode's buffered saline (135 mM NaCl, 5 mM KCl, 1 mM MgCl2, 1.8 mM CaCl2, 10 mM NaHEPES, 5.6 mM glucose, pH 7.5, plus 0.1% bovine serum albumin).
The cells are washed and placed in fresh media for several hours.

Setting [7] is: 100 μM working medium for 24 hours.

The structures appear in SMILES notation.

As to `O=c1cc(C(F)(F)F)c2ccc(O[C@@H]3O[C@H](CO)[C@H](O)[C@H](O)[C@H]3O)cc2o1` [4-trifluoromethylcoumarin β-D-galactopyranoside], the “fluorescence intensity after three hours in fresh culture medium” value (“fluorescence intensity after three hours” for short) in series [1] is reported as “low fluorescent intensity”.

Take `O=C1OC2(c3ccc(O)cc3Oc3cc(O)ccc32)c2ccc(CCl)cc21` [CMF, 5-chloromethylfluorescein]: the “time at which enzymatic activity can be detected” value in series [2] is recorded as “less than 5 minutes”.

Turning to `O=c1cc(CCl)c2ccc(O[C@@H]3O[C@H](CO)[C@H](O)[C@H](O)[C@H]3O)cc2o1` [Cl-MUG, 7-(β-D-galactopyranosyloxy)-4-chloromethylcoumarin], the “fluorescence of cells under microscope” value was “fluorescence is observed in the cytoplasmic area” in series [3] (100 μM in working medium, 60 minutes at 37° C., washed with fresh medium) and “not in 3T3 cells” in series [4]. Also, the “continuous incubation time at which fluorescence intensity reaches its highest level” value in [3] (100 μM working medium) was 6 h. Also, the cell morphology entry in series [5] (setting [7]) was “morphologically normal”. For the same compound, in series [5] (setting [7]), the “population doubling time versus cells in substrate-free medium” value is recorded as “same population doubling time”. Also, in series [5] (after incubation in working medium), the “time fluorescence can be detected in the cells following washing with fresh medium” value is on record as “at least 24 hours”. Besides, the cytotoxicity result in series [5] (either type of cell) is on record as “no cytotoxicity”. The subculture after preincubation entry in series [5] (preincubated in working medium for 6 hours, subcultured in fresh medium) is recorded as “second generation of cells that is normal”. Besides, the “fluorescence of fixed cells” value in the series with lacZ positive cells was “still brightly fluorescent”. Further, the “fluorescence intensity after three hours” value in series [1] is given as “brightly fluorescent”.

Take `O=C1OC2(c3ccc(O[C@@H]4O[C@H](CO)[C@H](O)[C@H](O)[C@H]4O)cc3Oc3cc(O[C@@H]4O[C@H](CO)[C@H](O)[C@H](O)[C@H]4O)ccc32)c2ccccc21` [FDG, fluorescein di-β-D-galaetoside, reference compound]: the “fluorescence of stained cells after 4 hours” value in series [6] is on record as “very dim with high background fluorescence in the medium”.

With `CC(C)CC(N)C(=O)Nc1ccc2c(c1)Oc1cc(NC(=O)c3ccc(CCl)cc3)ccc1C21OC(=O)c2ccccc21` [L-leucine-rhodamine 110-p-chloromethylbenzamide], the melting point was 275 °C (dec.). In addition, in the series with NIH/3T3 cells, the “leakage of enzyme reaction product after staining” value is listed as “significantly less leakage”; the “fluorescence after washing and several hours in fresh media” value is “bright, well-defined staining pattern”.

In the case of `Cc1cc(=O)oc2cc(O[C@@H]3O[C@H](CO)[C@H](O)[C@H](O)[C@H]3O)ccc12` [MUG, 4-methylumbelliferyl β-D-galactoside, reference compound], the “fluorescence of fixed cells” value in the series on lacZ positive cells is recorded as “barely fluorescent”. Further, the “fluorescence intensity after three hours” value in series [1] is given as “low fluorescent intensity”.

On to `CC(C)CC(N)C(=O)Nc1ccc2c(c1)Oc1cc(NC(=O)C(N)CC(C)C)ccc1C21OC(=O)c2ccccc21` [bis-(L-leucine)-rhodamine 110, reference compound], for which, in the series on NIH/3T3 cells, the “leakage of enzyme reaction product after staining” value is “substantial leakage”; the “fluorescence after washing and several hours in fresh media” value is listed as “no fluorescent signal”.

The values are drawn from patent USRE38723E1, “Haloalkyl derivatives of reporter molecules used to analyze metabolic activity in cells” (Molecular Probes, Inc., priority 1991, dated 2005).
